From article PMC11375702, “Early Preclinical Studies of Ergosterol Peroxide and Biological Evaluation of Its Derivatives” (ACS Omega, 2024)

Assay: Maximum tolerated dose (MTD) study, single oral dose
Type: in vivo, mouse
Conditions: for Gross pathology, External Abnormalities: No Abnormality Detected (number of mice) / Gross pathology, Internal Abnormalities: No Abnormality Detected (number of mice): 6 mice examined
Protocol: The study was conducted according to published and acceptable experimental conditions reported.[53] Animal protocols approved by LSU#IACUCAM21065 and UCC# 037–2021–16–01-PHA-IBC. Briefly, male and female Balb/c mice were given a single oral dose administration of ergosterol peroxide to C57BL/6 female and male mice (5–8 weeks old), followed by 7 days postdose observations. Toxicity is defined as a 20% loss of body weight. The study comprised three groups for a toxicity phase including: one control and two EP-treated groups (G2 and G3), having 6 mice/sex/group. Mice from groups G2 (300 mg/kg BW) and G3 (500 mg/kg BW) were administered an EP uniform suspension (light yellow), once by oral gavage. The mice from the control group (G1) received a 1% v/v Tween 80 and 0.5% w/v NaCMC in the RO water suspension. The dosing volume was kept constant at 10 mL/kg for each mouse. Then, animals were euthanized, and organs (liver, lung, heart, and kidney) were collected to check global signs of toxicity. Parameters evaluated included observation for clinical signs, body weight, body weight gain, feed consumption, clinical chemistry, and gross pathology. The total animals per MTD was 36 mice.

Q: Which “decrease in albumin vs vehicle control” value (300 mg/kg (G2), male mice) does the source give for `CC(C)[C@@H](C)/C=C/[C@@H](C)[C@H]1CC[C@@H]2[C@]1(C)CC[C@H]1[C@]23C=C[C@]2(C[C@@H](O)CC[C@]12C)OO3` [Compound 2, Ergosterol peroxide] here?
A: 6%

Q: What about the “decrease in triglycerides vs vehicle control” value (500 mg/kg (G3), male mice) of the same molecule?
A: 19%

Q: What about the MTD at 7 days (both sexes, mouse, in vivo, single oral dose, male or female mice) of the same molecule?
A: > 500 mg/kg

Q: And the “ALB, mean” value (female, 300 mg/kg)?
A: 3.08 g/dL

Q: What about the “ALP, mean” value (female, 300 mg/kg) of the same molecule?
A: 394.32 U/L

Q: What about the “ALT, mean” value (female, 300 mg/kg) of the same molecule?
A: 44.99 U/L

Q: And the “AST, mean” value (female, 300 mg/kg)?
A: 88.20 U/L

Q: And the “BUN, mean” value (female, 300 mg/kg)?
A: 16.45 mg/dL

Q: And the “CREA, mean” value (female, 300 mg/kg)?
A: 0.21 mg/dL

Q: And the “TGL, mean” value (female, 300 mg/kg)?
A: 38.15 mg/dL

Q: What about the “Gross pathology, External Abnormalities: No Abnormality Detected (number of mice)” value (female, 300 mg/kg) of the same molecule?
A: 6

Q: And the “Body Weight, mean” value (female, 300 mg/kg, day 1)?
A: 21.05 g

Q: What about the “Food Consumption, Average Feed Intake/ Animal” value (from here on “Food Consumption”) (female, 300 mg/kg, day 1 to 4) of the same molecule?
A: 12.3 g/Animal

Q: What about the “Body Weight, mean” value (female, 300 mg/kg, day 4) of the same molecule?
A: 21.15 g

Q: What about the “Food Consumption” value (female, 300 mg/kg, day 4 to 7) of the same molecule?
A: 12.2 g/Animal

Q: And the “Body Weight, mean” value (female, 300 mg/kg, day 7)?
A: 21.45 g

Q: And the “ALB, mean” value (female, 500 mg/kg)?
A: 3.03 g/dL

Q: What about the “ALP, mean” value (female, 500 mg/kg) of the same molecule?
A: 400.51 U/L

Q: And the “ALT, mean” value (female, 500 mg/kg)?
A: 47.50 U/L

Q: And the “AST, mean” value (female, 500 mg/kg)?
A: 75.14 U/L

Q: What about the “BUN, mean” value (female, 500 mg/kg) of the same molecule?
A: 17.63 mg/dL

Q: What about the “CREA, mean” value (female, 500 mg/kg) of the same molecule?
A: 0.20 mg/dL

Q: And the “TGL, mean” value (female, 500 mg/kg)?
A: 30.51 mg/dL

Q: And the “Gross pathology, External Abnormalities: No Abnormality Detected (number of mice)” value (female, 500 mg/kg)?
A: 6

Q: And the “Body Weight, mean” value (female, 500 mg/kg, day 1)?
A: 21.27 g

Q: What about the “Food Consumption” value (female, 500 mg/kg, day 1 to 4) of the same molecule?
A: 12.3 g/Animal

Q: What about the “Body Weight, mean” value (female, 500 mg/kg, day 4) of the same molecule?
A: 21.17 g

Q: And the “Food Consumption” value (female, 500 mg/kg, day 4 to 7)?
A: 11.8 g/Animal

Q: What about the “Body Weight, mean” value (female, 500 mg/kg, day 7) of the same molecule?
A: 21.53 g

Q: And the “ALB, mean” value (male, 300 mg/kg)?
A: 2.91 g/dL

Q: What about the “ALP, mean” value (male, 300 mg/kg) of the same molecule?
A: 312.51 U/L

Q: And the “ALT, mean” value (male, 300 mg/kg)?
A: 34.83 U/L

Q: And the “AST, mean” value (male, 300 mg/kg)?
A: 47.80 U/L

Q: And the “BUN, mean” value (male, 300 mg/kg)?
A: 16.45 mg/dL

Q: What about the “CREA, mean” value (male, 300 mg/kg) of the same molecule?
A: 0.17 mg/dL

Q: What about the “TGL, mean” value (male, 300 mg/kg) of the same molecule?
A: 51.23 mg/dL

Q: And the “Gross pathology, External Abnormalities: No Abnormality Detected (number of mice)” value (male, 300 mg/kg)?
A: 6

Q: What about the “Gross pathology, Internal Abnormalities: No Abnormality Detected (number of mice)” value (male, 300 mg/kg) of the same molecule?
A: 6

Q: What about the “Body Weight, mean” value (male, 300 mg/kg, day 1) of the same molecule?
A: 21.85 g

Q: What about the “Food Consumption” value (male, 300 mg/kg, day 1 to 4) of the same molecule?
A: 14.9 g/Animal

Q: And the “Body Weight, mean” value (male, 300 mg/kg, day 4)?
A: 22.28 g

Q: What about the “Food Consumption” value (male, 300 mg/kg, day 4 to 7) of the same molecule?
A: 14.6 g/Animal

Q: What about the “Body Weight, mean” value (male, 300 mg/kg, day 7) of the same molecule?
A: 23.03 g

Q: What about the “ALB, mean” value (male, 500 mg/kg) of the same molecule?
A: 3.03 g/dL

Q: And the “ALP, mean” value (male, 500 mg/kg)?
A: 412.86 U/L

Q: What about the “ALT, mean” value (male, 500 mg/kg) of the same molecule?
A: 54.07 U/L

Q: And the “AST, mean” value (male, 500 mg/kg)?
A: 91.50 U/L

Q: What about the “BUN, mean” value (male, 500 mg/kg) of the same molecule?
A: 17.06 mg/dL

Q: And the “CREA, mean” value (male, 500 mg/kg)?
A: 0.17 mg/dL

Q: And the “TGL, mean” value (male, 500 mg/kg)?
A: 46.91 mg/dL

Q: What about the “Gross pathology, External Abnormalities: No Abnormality Detected (number of mice)” value (male, 500 mg/kg) of the same molecule?
A: 6

Q: What about the “Gross pathology, Internal Abnormalities: No Abnormality Detected (number of mice)” value (male, 500 mg/kg) of the same molecule?
A: 6

Q: And the “Body Weight, mean” value (male, 500 mg/kg, day 1)?
A: 22.62 g

Q: And the “Food Consumption” value (male, 500 mg/kg, day 1 to 4)?
A: 10.4 g/Animal

Q: What about the “Body Weight, mean” value (male, 500 mg/kg, day 4) of the same molecule?
A: 22.70 g

Q: And the “Food Consumption” value (male, 500 mg/kg, day 4 to 7)?
A: 13.7 g/Animal

Q: And the “Body Weight, mean” value (male, 500 mg/kg, day 7)?
A: 22.27 g

Q: What about the clinical signs (oral, 300 and 500 mg/kg, mice) of the same molecule?
A: no abnormal clinical signs
